Assay results published in patent US10308615B2, “Heterocyclic compounds as inhibitors of Vanin-1 enzyme” (Pfizer Inc., priority 2015, dated 2019).

Legend:
Assay type in all cases: biochemical
human vanin-1 [1] = molecular target: T1, human vanin-1 (Homo sapiens (Human), UniProt O95497); test: Human Vanin-1 Enzyme Assay 3; conditions: 2 nM human vanin-1, 10 uM substrate, 15 min
Method in brief: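 His/FLAG-tagged extracellular domain of human vanin-1 from CHO cells, used at 2 nM final, with 10 uM pantetheine-AFC substrate. Buffer: 50 mM Tris-HCl pH 8.0, 50 mM KCl, 0.005% Brij-35, 1.5 mM cysteamine, 1% DMSO. 15 min at room temperature; fluorescence read at 405/505 nm across an 11-point 2-fold dilution series.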

human vanin-1 [2] = molecular target: T1, human vanin-1; test: Human Vanin-1 Enzyme Assay 1; conditions: 25 pM human vanin-1, 50 uM pantetheine 7-amino-4-trifluoromethylcoumarin, 30 min preincubation, 60 min
Method in brief: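 Purified His6/FLAG-tagged extracellular domain of human vanin-1, secreted from CHO cells, at 25 pM final in 50 mM Tris-HCl pH 8.0, 50 mM KCl, 0.005% Brij-35, 1.6 mM cysteamine, 0.5% DMSO. Inhibitor preincubated 30 min at room temperature; 50 uM pantetheine-AFC substrate, 60 min, fluorescence at 405/510 nm; 11-point four-fold dilution series.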

human vanin-1 [3] = molecular target: T1, human vanin-1; test: Human Vanin-1 Enzyme Assay 2; conditions: 1 nM human vanin-1, 10 uM substrate, 45 min
Method: Human Vanin-1 Enzyme Assay 2.
The in vitro assay measures enzymatic cleavage of the fluorescently-labeled vanin substrate, pantetheine 7-amino-4-trifluoromethylcoumarin, by human vanin-1.
The vanin-1 protein was prepared in-house from a construct expressing the extracellular domain of human vanin-1 (GenBank ID NM_004666) preceded N-terminally by the honey bee melittin signal peptide, a GSG linker sequence, a His6X tag and a FLAG tag. The secreted, soluble enzyme was purified from the conditioned medium from a CHO cell line stably expressing the resulting protein. Enzyme purification was performed through sequential Ni NTA and size-exclusion chromatography steps.
On the day of the assay, dose response plates were prepared by diluting the inhibitors in DMSO at compound concentration 100-fold the final in-assay concentration. Concentration series were prepared by serially diluting in DMSO in a half-log series for a total of 11 data points. Intermediate compound plates containing compound in 10% DMSO were then created by diluting the compounds 10-fold in assay buffer consisting of 50 mM Tris-HCl pH=8.0, 50 mM KCl, 0.005% Brij-35 and 1.5 mM cysteamine. To begin the assay 3 μL were transferred from the intermediate compound plate to the assay plate.
A working solution of human vanin-1 was prepared by diluting the enzyme stock to 1.25 nM in assay buffer. Next, 24 μL of the vanin-1 working solution were transferred to the assay plate. The enzyme reaction was then initiated by the addition of 3 μL of 100 μM pantetheine 7-amino-4-trifluoromethylcoumarin prepared in assay buffer. The final concentrations in the assay were 1 nM human vanin-1 and 10 uM substrate. The final concentration of DMSO was 1%. The assay plates were incubated for 45 minutes and before they were read on a Spectramax M5 using a 405 nm excitation wavelength and a 505 nm emission wavelength for detection.

T1 sequence (O95497 22-491): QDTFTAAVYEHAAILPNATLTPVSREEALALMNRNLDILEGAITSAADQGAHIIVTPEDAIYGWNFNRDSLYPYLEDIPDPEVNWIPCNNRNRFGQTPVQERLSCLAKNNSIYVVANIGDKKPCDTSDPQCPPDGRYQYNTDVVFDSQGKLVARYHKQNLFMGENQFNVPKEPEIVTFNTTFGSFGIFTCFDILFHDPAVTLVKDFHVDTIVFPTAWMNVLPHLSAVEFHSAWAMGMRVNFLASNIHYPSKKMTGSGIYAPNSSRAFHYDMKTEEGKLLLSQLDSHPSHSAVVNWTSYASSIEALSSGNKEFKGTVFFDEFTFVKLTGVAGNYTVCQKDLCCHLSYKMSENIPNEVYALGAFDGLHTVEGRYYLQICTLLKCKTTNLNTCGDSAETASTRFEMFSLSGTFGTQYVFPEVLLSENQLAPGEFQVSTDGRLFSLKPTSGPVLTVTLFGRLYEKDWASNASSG

IC50 (human vanin-1 [1]) | IC50 (human vanin-1 [2]) | IC50 (human vanin-1 [3]) | Compound
75 nM | 13.6 nM | 15.3 nM | CC(C)(Nc1ncc(C(=O)c2cccc(C#N)c2)cn1)c1ccccc1 [Example 3, 3-({2-[(2-phenylpropan-2-yl)amino]pyrimidin-5-yl}carbonyl)benzonitrile]
< 6.2 nM | 6.4 nM | 9 nM | O=C(c1cnc(NCc2cnccn2)nc1)c1cccc(C(F)(F)F)c1 [Example 11, {2-[(pyrazin-2-ylmethyl)amino]pyrimidin-5-yl}[3-(trifluoromethyl)phenyl]methanone]
0.5 nM | 1.9 nM | 2.9 nM | O=C(c1cnc(NCc2cccnc2)nc1)c1cccc(C(F)(F)F)c1 [Example 12, {2-[(pyridin-3-ylmethyl)amino]pyrimidin-5-yl}[3-(trifluoromethyl)phenyl]methanone]
> 26.1 nM |  | 2 nM | CS(=O)(=O)c1cccc(C(=O)c2cnc(NCc3cccnc3)nc2)c1 [Example 13, [3-(methylsulfonyl)phenyl]{2-[(pyridin-3-ylmethyl)amino]pyrimidin-5-yl}methanone]
< 13 nM | 47.8 nM | 31.5 nM | Cc1cccc(C(=O)c2cnc(NCc3cccnc3)nc2)c1 [Example 14, (3-methylphenyl){2-[(pyridin-3-ylmethyl)amino]pyrimidin-5-yl}methanone]
170 nM | 329 nM | 92.4 nM | O=C(c1cnc(NCc2cccnc2)nc1)c1ccccc1F [Example 15, (2-fluorophenyl){2-[(pyridin-3-ylmethyl)amino]pyrimidin-5-yl}methanone]
160 nM | 178 nM | 98.7 nM | Cc1cccc(C(=O)c2cnc(NCc3ccc(C(N)=O)cc3)nc2)c1 [Example 23, 4-({[5-(3-methylbenzoyl)pyrimidin-2-yl]amino}methyl) benzamide]
274 nM | 1240 nM | 317 nM | O=C(c1cnc(NCc2ccccc2)nc1)c1cccc(Cl)c1 [Example 24, [2-(benzylamino)pyrimidin-5-yl](3-chlorophenyl) methanone]
11.5 nM | 74.1 nM | 64.5 nM | CC(C)(Nc1ncc(C(=O)c2cccc(Cl)c2)cn1)c1ccccc1 [Example 25, (3-chlorophenyl){2-[(2-phenylpropan-2-yl)amino]pyrimidin-5-yl}methanone]
77.2 nM |  | 226 nM | COc1cccc(C(=O)c2cnc(NCc3ccc(F)cc3)nc2)c1 [Example 37, {2-[(4-fluorobenzyl)amino]pyrimidin-5-yl}(3-methoxyphenyl) methanone]
81.6 nM |  | 47.9 nM | O=C(c1cnc(NCc2cccnn2)nc1)c1cccc(C(F)(F)F)c1 [Example 67, {2-[(pyridazin-3-ylmethyl)amino]pyrimidin-5-yl}[3-(trifluoromethyl)phenyl]methanone]
381 nM |  | 563 nM | Cn1cc(C(=O)c2cnc(NCc3cccnc3)nc2)cn1 [Example 103, (1-methyl-1H-pyrazol-4-yl){2-[(pyridin-3-ylmethyl)amino]pyrimidin-5-yl}methanone]
6.1 nM |  | 11.3 nM | O=C(c1cnc(NCc2cncnc2)nc1)c1cccc(C(F)(F)F)c1 [Example 119, {2-[(pyrimidin-5-ylmethyl)amino]pyrimidin-5-yl}[3-(trifluoromethyl)phenyl]methanone]
> 1250 nM |  | 21.9 nM | CS(=O)(=O)c1cccc(C(=O)c2cnc(NCc3ccc(C(N)=O)cc3)nc2)c1 [Example 125, 4-[({5-[3-(methylsulfonyl)benzoyl]pyrimidin-2-yl}amino)methyl] benzamide]
 | 259 nM | 100 nM | N#Cc1cc(C(=O)c2cnc(NCc3cncnc3)nc2)ccc1Cl [Example 134, 2-chloro-5-({2-[(pyrimidin-5-ylmethyl)amino]pyrimidin-5-yl}carbonyl) benzonitrile]
 | 48.4 nM | 68.3 nM | N#Cc1cc(C(=O)c2cnc(NCc3cncnc3)nc2)ccc1F [Example 135, 2-fluoro-5-({2-[(pyrimidin-5-ylmethyl)amino]pyrimidin-5-yl}carbonyl) benzonitrile]
 | 187 nM | 137 nM | NC(=O)c1cccc(C(=O)c2cnc(NCc3cncnc3)nc2)c1 [Example 136, 3-({2-[(pyrimidin-5-ylmethyl)amino]pyrimidin-5-yl}carbonyl) benzamide]
 | 501 nM | 1010 nM | Cn1ncc2ccc(C(=O)c3cnc(NCc4cncnc4)nc3)cc21 [Example 137, (1-methyl-1H-indazol-6-yl){2-[(pyrimidin-5-ylmethyl)amino]pyrimidin-5-yl}methanone]
 | 194 nM | 437 nM | COc1ccc(C(=O)c2cnc(NC(C)c3cncnc3)nc2)cc1 (stereo not drawn) [Example 138, (4-methoxyphenyl) (2-{[1-(pyrimidin-5-yl)ethyl]amino}pyrimidin-5-yl)methanone]
 | 144 nM | 64.4 nM | N#Cc1cccc(C(=O)c2ccc(NCc3cncnc3)nc2)c1 [Example 140, 3-({6-[(pyrimidin-5-ylmethyl)amino]pyridin-3-yl}carbonyl) benzonitrile]
 | 17.1 nM | 34.3 nM | COc1cccc(C(=O)c2cnc(NC(C)c3cncnc3)nc2)c1 (stereo not drawn) [Example 142, (3-methoxyphenyl) (2-{[1-(pyrimidin-5-yl)ethyl]amino}pyrimidin-5-yl)methanone]
 | 81.5 nM | 110 nM | COc1cccc(C(=O)c2cnc(NCc3cncnc3)nc2)c1 [Example 143, (3-methoxyphenyl) {2-[(pyrimidin-5-ylmethyl)amino]pyrimidin-5-yl}methanone]
 | 12.5 nM | 19.8 nM | CC(Nc1ccc(C(=O)c2cccc(C#N)c2)cn1)c1cncnc1 (stereo not drawn) [Example 144, 3-[(6-{[1-(pyrimidin-5-yl)ethyl]amino}pyridin-3-yl)carbonyl] benzonitrile]
 | 329 nM | 486 nM | O=C(c1cnc(NCc2cncnc2)nc1)c1ccc2c(c1)OCCO2 [Example 145, 2,3-dihydro-1,4-benzodioxin-6-yl{2-[(pyrimidin-5-ylmethyl)amino]pyrimidin-5-yl}methanone]
3790 nM |  | 6410 nM | COc1cccc(C(=O)c2cnc(NCc3ccc(N4CCN(C)CC4)cc3)nc2)c1 [Example 154, (3-methoxyphenyl) (2-{[4-(4-methylpiperazin-1-yl)benzyl]amino}pyrimidin-5-yl)methanone]
 | 2750 nM | 3080 nM | Cn1ncc2cc(C(=O)c3cnc(NCc4cncnc4)nc3)ccc21 [Example 159, (1-methyl-1H-indazol-5-yl){2-[(pyrimidin-5-ylmethyl)amino]pyrimidin-5-yl}methanone]
 | 3440 nM | 7150 nM | COc1ccc(C(=O)c2cnc(NC(C)c3ccc(C(N)=O)cc3)nc2)cc1 (stereo not drawn) [Example 160, 4-(1-{[5-(4-methoxybenzoyl)pyrimidin-2-yl]amino}ethyl) benzamide]
 | 2880 nM | 2230 nM | N#Cc1cccc(C(=O)c2cnc(NCC3CCOCC3)nc2)c1 [Example 163, 3-({2-[(tetrahydro-2H-pyran-4-ylmethyl)amino]pyrimidin-5-yl}carbonyl) benzonitrile]
 | 1810 nM | 8570 nM | CN1CCC(CNc2ncc(C(=O)c3cccc(C#N)c3)cn2)CC1 [Example 164, 3-[(2-{[(1-methylpiperidin-4-yl)methyl]amino}pyrimidin-5-yl)carbonyl] benzonitrile]
